Test results published in patent US20240409647A1, “BISPECIFIC BINDING PROTEINS AGAINST ALARMINS AND USES THEREOF” (SINOMAB BIOSCIENCE LIMITED, priority 2022, published 2024).
Values joined by “and” are separate entries in the source; they are usually repeats but may differ in a detail not shown here. Equal entries are not always repeated.

Tests used:
IL-17RB [1] = target: T1, IL-17RB (Homo sapiens, UniProt Q9NRM6); test: ELISA, SM17 binding to coated IL-17RB protein (human); conditions: two wells
T1 construct: purchased R&D systems
T1 sequence (Q9NRM6 18-502): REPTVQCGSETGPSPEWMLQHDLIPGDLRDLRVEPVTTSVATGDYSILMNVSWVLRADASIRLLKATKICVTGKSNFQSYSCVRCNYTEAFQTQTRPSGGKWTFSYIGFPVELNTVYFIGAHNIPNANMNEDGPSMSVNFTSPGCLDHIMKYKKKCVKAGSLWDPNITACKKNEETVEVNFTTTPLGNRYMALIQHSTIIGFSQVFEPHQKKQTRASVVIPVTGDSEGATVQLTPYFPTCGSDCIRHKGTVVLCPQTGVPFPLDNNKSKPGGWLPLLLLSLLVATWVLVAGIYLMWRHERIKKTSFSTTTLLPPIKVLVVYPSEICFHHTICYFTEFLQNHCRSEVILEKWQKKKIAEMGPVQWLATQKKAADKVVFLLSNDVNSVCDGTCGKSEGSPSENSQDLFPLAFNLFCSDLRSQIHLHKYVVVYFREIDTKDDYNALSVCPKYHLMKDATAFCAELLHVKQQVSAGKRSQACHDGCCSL
Protocol: (§1) A standard enzyme-linked immunosorbent assay (ELISA) method was used to determine the species specificity of SM17 against IL-17RB proteins. Briefly, IL-17RB proteins from human, mouse, cynomolgus or rhesus monkey (R&D systems, Minneapolis, MN) were diluted to 2.5 μg/ml in PBS and 50 μl of IL-17RB proteins were added to each well of ELISA strip. The strips were sealed with parafilm and incubated at 4° C. overnight for coating.
(§2) On the next day, strips were washed thrice with washing buffer (0.05% Tween 20 in PBS) and blocked with 100 μl per well with blocking buffer (3% BSA in PBS) for 2 hours RT before serially diluted SM17 (at a final concentration of 10, 2, 0.4, 0.08, 0.016, 0.0032, and 0.00064 μg/ml, respectively) was added.

IL-17RB [2] = target: T1, IL-17RB; test: ELISA, antigen binding specificity of bsBp (IL-17RB); parameters: key: −: no binding; +: weak; ++: moderate; +++: strong binding; N/A refers to no binding affinity; conditions: 33.5 nM; antigen coated at 2 μg/mL
Protocol: Binding specificities of bsBp were evaluated by standard ELISA assays. Briefly, ELISA strips were coated with the respective target antigens, including IL17RB, IL-33, or TSLP (R&D systems) at a final concentration of 2 μg/mL. Bispecific antibodies were added at 33.5 nM to ELISA strips coated with the desired antigen. After incubation under room temperature for 2 hours, ELISA strips were washed five times with PBS. […] No result is provided for SM17-human TSLPR as the yield was too low to be detected.

[3] = tested on: IL-2/IL-25-treated human PBMC; test: IL-5 release from IL-2/IL-25-treated human PBMC; assay type: cell-based; conditions: SM17 0.16 ng/mL to 5 mg/mL; 10 unit/mL IL-2, 10 μg/mL IL-25; 72 hours; dose dependent
Protocol: PBMC (Ixcells, San Diego, CA) co-cultured with IL-2 and IL-25 (PeproTech, Cranbury, NJ) can lead to the release of IL-5, a cytokine known to exacerbate the conditions of asthma. Accordingly, the inhibitory effect of SM17 on IL-5 release from IL-2/IL-25-treated human PBMC was evaluated. Briefly, cryopreserved human PBMC were thawed and cultured in RPMI-1640 medium supplemented with 10% Fetal Bovine Serum (Thermo Fisher Scientific). Serially diluted SM17 at concentrations ranging from 0.16 ng/mL to 5 mg/mL were added to 4×10^5 of human PBMC in the presence of 10 unit/mL of IL-2 and 10 μg/mL of IL-25. Non-specific human IgG4 (SinoBiological) was used as the control antibody. Treated cells were incubated for 72 hours at 37° C., and the level of IL-5 release in the culture supernatant was measured by standard ELISA assay (R&D systems). […] Results are presented as means±SEM. One Way ANOVA, Dunnett's Multiple Comparison Test, *: P<0.05; **: P<0.01.

cynomolgus IL17RB = test: ELISA, SM17 binding to coated IL-17RB protein (cynomolgus); conditions: two wells
Protocol: as §1, §2

[4] = tested on: OVA-induced murine experimental asthma; test: Ovalbumin induced asthma on mice; assay type: in vivo, BALB/c mice
Protocol: Female BALB/c mice were induced with ovalbumin to elicit asthma like symptoms on mice. Briefly, mice were each sensitized with […] of ovalbumin (OVA) emulsified in 1 mg of aluminum hydroxide in a total volume of […] via intraperitoneal (IP) injections on Days 0 and 12. Mice were divided into 6 groups with 8 mice per group. Sensitized mice were exposed to aerosolized 5% OVA in sterile water, 20 minutes/day for six consecutive days (Days 19, 20, 21, 22, 23 and 24). Naïve mice inhaled the atomized water, 20 minutes/day, for six consecutive days. Mice were then i.v. injected with different concentrations of SM17, PBS (control), or dexamethasone (Dex) 4 hours before aerosol challenge, once per day (Day 19 to 24).
On day 25 (24 hours after the last OVA challenge), mice were anesthetized with Telazol® (20-40 mg/kg i.p.) and connected to a computer-controlled ventilator via the tracheal cannula. The time of expiration/inspiration and the respiratory rate were preset at 1.5:1 and 90/min, respectively. After a steady baseline was established, the resistance of the lung (RL) was recorded to evaluate the reaction of mice to a methacholine chloride gradient (0.025 and 0.05 mg/kg body weight); the methacholine chloride was injected into the vena jugulars externa at 5-min intervals via a fine needle. […] BALF from mice sacrificed on Day 25 was retrieved, and inflammatory cell number and the concentrations of inflammatory cytokine from BALF were determined.
Results are presented as means±SEM. One Way ANOVA, Dunnett's Multiple Comparison Test, *: P<0.05; **: P<0.01. Dex=Dexamethasone.

OD 450 nm Absorption, human IL17RB (IL-17RB [1]; SM17 0.016 μg/mL): 0.17 | OD 450 nm Absorption, human IL17RB (IL-17RB [1]; SM17 0.08 μg/mL): 0.58 and 0.44 | OD 450 nm Absorption, human IL17RB (IL-17RB [1]; SM17 0.4 μg/mL): 1.10 and 1.14 | OD 450 nm Absorption, human IL17RB (IL-17RB [1]; SM17 2 μg/mL): 1.74 and 1.61 | OD 450 nm Absorption, human IL17RB (IL-17RB [1]; SM17 10 μg/mL): 1.82 and 1.88 | Intensity of specific antigen binding, IL-17RB coated on ELISA strips (IL-17RB [2]): +++ | OD 450 nm Absorption, cynomolgus IL17RB (cynomolgus IL17RB; SM17 0.016 μg/mL): 0.34 | OD 450 nm Absorption, cynomolgus IL17RB (cynomolgus IL17RB; SM17 0.08 μg/mL): 0.72 and 0.74 | OD 450 nm Absorption, cynomolgus IL17RB (cynomolgus IL17RB; SM17 0.4 μg/mL): 0.89 and 0.97 | OD 450 nm Absorption, cynomolgus IL17RB (cynomolgus IL17RB; SM17 2 μg/mL): 1.13 and 1.12 | OD 450 nm Absorption, cynomolgus IL17RB (cynomolgus IL17RB; SM17 10 μg/mL): 1.33 and 1.37
Substance: SM17: humanized anti-IL17RB monoclonal antibody, human IgG4 isotype; HC SEQ ID NO: 32, LC SEQ ID NO: 33
release of IL-5 from human PBMC induced with IL-2 and IL-25 (in words) [3]: suppressed the release of IL-5 | airway hyperresponsiveness (in words) ([4]; 1 mg/kg or 3 mg/kg SM17 before each OVA aerosolization): mild but not significant abrogation in AHR | airway hyperresponsiveness (in words) ([4]; 5 mg/kg SM17 i.v. once per day, Day 19 to 24, methacholine challenge day 25): prevented airway hyperresponsiveness | number of pulmonary infiltrated eosinophils (in words) ([4]; SM17 at 5 mg/kg): significantly reduce the number of pulmonary infiltrated eosinophils | IL-13 levels in BALF (in words) ([4]; SM17 at 5 mg/kg, Day 25): significantly reduced the IL-13 levels | eosinophil number in BALF (in words) ([4]; SM17 at 5 mg/kg, Day 25): significantly reduced | IL-5 levels in BALF (in words) ([4]; SM17 at 1, 3 and 5 mg/kg, Day 25): significantly reduced the IL-5 levels in BALF
